Data taken from patent US4792545A, “Boholmycin antibiotic” (Bristol-Myers Company, priority 1986, dated 1988).
In brackets after ≈: the same amount, converted by molar mass. Read-outs that look alike come from different tables or passages of the source.

Assays:
E. coli A20664 = assay: MIC by serial agar dilution; format: cell-based; details: E. coli A20664, kanamycin resistant strain, medium A: Nutrient agar
P. aeruginosa A20601 = assay: MIC by serial agar dilution; format: cell-based; details: P. aeruginosa A20601, kanamycin resistant strain, medium A: Nutrient agar
M. flavus D-12 = assay: MIC by serial agar dilution; format: cell-based
S. marcescens A22302 = assay: MIC by serial agar dilution; format: cell-based
E. coli Juhl [1] = assay: MIC by serial agar dilution; format: cell-based; details: medium A: Nutrient agar
Mycobacterium phlei = assay: MIC by serial agar dilution; format: cell-based; details: Mycobacterium phlei, medium B: No. 1001 medium
E. coli NIHJ = assay: MIC by serial agar dilution; format: cell-based; details: medium A: Nutrient agar
S. marcescens A20019 = assay: MIC by serial agar dilution; format: cell-based
B. subtilis PCI-219 = assay: inhibiting growth of B. subtilis PCI-219 (paper disc); format: cell-based; details: Bacillus subtilis, PCI219, 28° C., 18 hours
Method: Boholmycin dihydrochloride tetrahydrate was tested in comparison with streptomycin, glebomycin, myomycin B and kanamycin in respect to stimulating growth of E. coli D64 and in respect to inhibiting growth of B. subtilis PCI-219. The results are shown in Table 4 wherein the term "boholmycin" is used for short in referring to boholmycin dihydrochloride tetrahydrate.
*^1 8 mm paper disc containing 35 μl of test solution
*^3 Incubation at 28° C. for 18 hours

E. cloacae A20364 = assay: MIC by serial agar dilution; format: cell-based; details: E. cloacae A20364, kanamycin resistant strain, medium A: Nutrient agar
E. coli Juhl [2] = assay: in vivo efficacy in mice against experimental infection; details: mice, i.m. just before challenge, E. coli Juhl, 5 days observation
M. luteus PCI-1001 = assay: MIC by serial agar dilution; format: cell-based; details: M. luteus PCI-1001, medium A: Nutrient agar
[3] = toxic signs in mice, intravenous administration; format: in vivo; details: up to a dose of 1,000 mg/kg
S. aureus 209P = assay: MIC by serial agar dilution; format: cell-based; details: S. aureus 209P, medium A: Nutrient agar
Mycobacterium ranae = assay: MIC by serial agar dilution; format: cell-based; details: Mycobacterium ranae, medium B: No. 1001 medium
basicity = format: physicochemical
stability in solution = format: physicochemical
P. aeruginosa A9843A = assay: microbe, parasite or virus in culture; format: cell-based
S. aureus A20239 = assay: MIC by serial agar dilution; format: cell-based; details: S. aureus A20239, kanamycin resistant strain, medium A: Nutrient agar
P. aeruginosa A9930 = assay: MIC by serial agar dilution; format: cell-based; details: medium A: Nutrient agar
K. pneumoniae D-11 [4] = assay: MIC by serial agar dilution; format: cell-based
S. aureus Smith [5] = assay: MIC by serial agar dilution; format: cell-based; details: S. aureus Smith, medium A: Nutrient agar
E. cloacae A21006 = assay: MIC by serial agar dilution; format: cell-based; details: E. cloacae A21006, kanamycin resistant strain, medium A: Nutrient agar
Mycobacterium 607 D46 = assay: MIC by serial agar dilution; format: cell-based; details: Mycobacterium 607 D46, kanamycin resistant strain, medium B: No. 1001 medium
E. coli K-12 = assay: MIC by serial agar dilution; format: cell-based
E. coli D64 = assay: stimulating growth of streptomycin-dependent E. coli D64 (paper disc); format: cell-based; details: for Growth zone vs E. coli D64, hazy growth zone: value in parentheses
Excerpt: The results are shown in Table 4 wherein the term "boholmycin" is used for short in referring to boholmycin dihydrochloride tetrahydrate.

K. pneumoniae A9678 = assay: MIC by serial agar dilution; format: cell-based; details: medium A: Nutrient agar
P. vulgaris A9436 = assay: MIC by serial agar dilution; format: cell-based; details: medium A: Nutrient agar
solubility = format: physicochemical
[6] = system: experimental infections produced by S. aureus, E. coli and K. pneumoniae; assay: in vivo activity in mice, Table 5 overall; details: i.m.
B. subtilis ATCC6633 = assay: MIC by serial agar dilution; format: cell-based; details: medium A: Nutrient agar
K. pneumoniae D-11 [7] = assay: in vivo efficacy in mice against experimental infection; details: mice, i.m. just before challenge, K. pneumoniae D-11, 5 days observation
P. mirabilis A9554 = assay: MIC by serial agar dilution; format: cell-based; details: medium A: Nutrient agar
Mycobacterium 607 D87 = assay: MIC by serial agar dilution; format: cell-based; details: Mycobacterium 607 D87, medium B: No. 1001 medium
B. anthracis IID-115 = assay: microbe, parasite or virus in culture; format: cell-based
E. coli JR35/c600 = assay: MIC by serial agar dilution; format: cell-based
S. aureus Smith [8] = assay: in vivo efficacy in mice against experimental infection; details: mice, i.m. just before challenge, S. aureus Smith, 5 days observation
bacteria = assay: in vitro antibacterial activity, Table 3 panel overall; format: cell-based
Method: The minimum inhibitory concentration (MIC) of boholmycin dihydrochloride tetrahydrate was determined by a serial agar dilution method in comparison with sorbistin A1, streptomycin and kanamycin. Nutrient agar (Difco) was used for all bacteria except for strains of Mycobacterium which were tested in No. 1001 agar.

[9] = Escherichia coli, read-out: MIC
[10] = Pseudomonas aeruginosa, read-out: MIC
[11] = Enterobacter cloacae, read-out: MIC
[12] = Staphylococcus aureus, read-out: MIC

Structure (SMILES): CNC1C(OC2C(O)C(OC3OC(CO)C(O)C(N)C3O)C(OC(N)=O)C(O)C2OC(N)=O)OCC(OC2OC(C(O)CO)C(O)C(O)C2O)C1O (stereo not drawn) [Boholmycin]
- MIC (E. coli A20664; [9]): 12.5 µg/mL (≈ 16.3 µM)
- MIC (P. aeruginosa A20601; [10]): 12.5 µg/mL (≈ 16.3 µM)
- MIC (M. flavus D-12; Micrococcus flavus, D12, medium A: Nutrient agar, read-out: MIC): 100 µg/mL (≈ 131 µM)
- MIC (S. marcescens A22302; Serratia marcescens, A22302): 100 µg/mL (≈ 131 µM)
- MIC (E. coli Juhl [1]; [9]): 100 µg/mL (≈ 131 µM)
- MIC (Mycobacterium phlei; Mycolicibacterium phlei, read-out: MIC): 6.3 µg/mL (≈ 8.24 µM)
- MIC (E. coli NIHJ; [9]): 50 µg/mL (≈ 65.4 µM)
- MIC (S. marcescens A20019; Serratia marcescens, A20019): 100 µg/mL (≈ 131 µM)
- zone of inhibition at 10000 µg/mL (B. subtilis PCI-219; 10 mg/ml): 30 mm
- zone of inhibition at 40000 µg/mL (B. subtilis PCI-219; 40 mg/ml): 33 mm
- MIC (E. cloacae A20364; [11]): 50 µg/mL (≈ 65.4 µM)
- ED50 (E. coli Juhl [2]; Escherichia coli, im, 120 h, read-out: PD50): 100 mg/kg
- MIC (M. luteus PCI-1001; Micrococcus luteus, PCI1001, read-out: MIC): 200 µg/mL (≈ 262 µM)
- toxic signs [3]: did not show any toxic signs
- MIC (S. aureus 209P; [12]): 200 µg/mL (≈ 262 µM)
- MIC (Mycobacterium ranae; read-out: MIC): 25 µg/mL (≈ 32.7 µM)
- basicity (basicity): weakly basic
- stability in alkaline solution (stability in solution; alkaline solution): unstable in alkaline solution
- stability in neutral and acidic solution (stability in solution; neutral and acidic solution): reasonably stable in neutral and acidic solution
- MIC (P. aeruginosa A9843A; Pseudomonas aeruginosa, A9843A): 200 µg/mL (≈ 262 µM)
- MIC (S. aureus A20239; [12]): > 200 µg/mL
- MIC (P. aeruginosa A9930; [10]): 100 µg/mL (≈ 131 µM)
- MIC (K. pneumoniae D-11 [4]; Klebsiella pneumoniae, D11, medium A: Nutrient agar, read-out: MIC): 6.3 µg/mL (≈ 8.24 µM)
- MIC (S. aureus Smith [5]; [12]): 200 µg/mL (≈ 262 µM)
- MIC (E. cloacae A21006; [11]): 50 µg/mL (≈ 65.4 µM)
- MIC (Mycobacterium 607 D46; read-out: MIC): 25 µg/mL (≈ 32.7 µM)
- MIC (E. coli K-12; Escherichia coli, K12, medium A: Nutrient agar, read-out: MIC): 25 µg/mL (≈ 32.7 µM)
- Growth zone vs E. coli D64, hazy growth zone (E. coli D64; 10 mg/ml, 37° C., 45 hours): 16 mm
- Growth zone vs E. coli D64 (E. coli D64; 40 mg/ml, 37° C., 45 hours): 18 mm
- Growth zone vs E. coli D64, hazy growth zone (E. coli D64; 40 mg/ml, 37° C., 45 hours): 23 mm
- induction/stimulation of growth of streptomycin-dependent E. coli D64 (E. coli D64; result in words): induced the growth
- MIC (K. pneumoniae A9678; Klebsiella pneumoniae, read-out: MIC): 100 µg/mL (≈ 131 µM)
- MIC (P. vulgaris A9436; Proteus vulgaris, read-out: MIC): 6.3 µg/mL (≈ 8.24 µM)
- solubility in methanol and ethanol (solubility; methanol and ethanol): slightly soluble in methanol and ethanol
- solubility in other organic solvents (solubility; other organic solvents): practically insoluble in other organic solvents
- solubility in water (solubility; water): freely soluble in water
- in vivo activity compared with streptomycin and kanamycin [6]: much less active than streptomycin and kanamycin
- MIC (B. subtilis ATCC6633; Bacillus subtilis, read-out: MIC): 50 µg/mL (≈ 65.4 µM)
- ED50 (K. pneumoniae D-11 [7]; Klebsiella pneumoniae, D11, im, 120 h, read-out: PD50): 65 mg/kg
- MIC (P. mirabilis A9554; Proteus mirabilis, read-out: MIC): 50 µg/mL (≈ 65.4 µM)
- MIC (Mycobacterium 607 D87; read-out: MIC): 25 µg/mL (≈ 32.7 µM)
- MIC (B. anthracis IID-115; Bacillus anthracis, IID115): 25 µg/mL (≈ 32.7 µM)
- MIC (E. coli JR35/c600; Escherichia coli, JR35/C600): 25 µg/mL (≈ 32.7 µM)
- ED50 (S. aureus Smith [8]; Staphylococcus aureus, im, 120 h, read-out: PD50): 75 mg/kg
- antibacterial activity compared with sorbistin A1 (bacteria; Table 3 overall, vs sorbistin A1): comparable to that of sorbistin A1
- antibacterial activity compared with streptomycin or kanamycin (bacteria; Table 3 overall, vs streptomycin or kanamycin): generally weaker than that of streptomycin or kanamycin
- activity against kanamycin and streptomycin-resistant organisms (bacteria; resistant vs sensitive organisms): as active against kanamycin and streptomycin-resistant organisms as against the sensitive ones

Structure (SMILES): CCC(=O)N[C@@H]1C(CO)O[C@H](O[C@@H]([C@H](N)[C@H](O)CO)[C@@H](O)CN)C(O)C1O (stereo partly drawn) [sorbistin A1]
- MIC (E. coli A20664): 25 µg/mL (≈ 62.9 µM)
- MIC (P. aeruginosa A20601): 3.1 µg/mL (≈ 7.8 µM)
- MIC (M. flavus D-12; medium A: Nutrient agar): 12.5 µg/mL (≈ 31.5 µM)
- MIC (S. marcescens A22302; S. marcescens A22302, kanamycin resistant strain, medium A: Nutrient agar): 400 µg/mL (≈ 1010 µM)
- MIC (E. coli Juhl [1]): 50 µg/mL (≈ 126 µM)
- MIC (Mycobacterium phlei): 25 µg/mL (≈ 62.9 µM)
- MIC (E. coli NIHJ): 25 µg/mL (≈ 62.9 µM)
- MIC (S. marcescens A20019; S. marcescens A20019, medium A: Nutrient agar): > 200 µg/mL
- MIC (E. cloacae A20364): 50 µg/mL (≈ 126 µM)
- PD50 (E. coli Juhl [2]): 100 mg/kg
- MIC (M. luteus PCI-1001): 50 µg/mL (≈ 126 µM)
- MIC (S. aureus 209P): 50 µg/mL (≈ 126 µM)
- MIC (Mycobacterium ranae): 50 µg/mL (≈ 126 µM)
- MIC (P. aeruginosa A9843A; P. aeruginosa A9843A, medium A: Nutrient agar): 6.3 µg/mL (≈ 15.9 µM)
- MIC (S. aureus A20239): 100 µg/mL (≈ 252 µM)
- MIC (P. aeruginosa A9930): 12.5 µg/mL (≈ 31.5 µM)
- MIC (K. pneumoniae D-11 [4]; medium A: Nutrient agar): 6.3 µg/mL (≈ 15.9 µM)
- MIC (S. aureus Smith [5]): 50 µg/mL (≈ 126 µM)
- MIC (E. cloacae A21006): 50 µg/mL (≈ 126 µM)
- MIC (Mycobacterium 607 D46): 100 µg/mL (≈ 252 µM)
- MIC (E. coli K-12; medium A: Nutrient agar): 25 µg/mL (≈ 62.9 µM)
- MIC (K. pneumoniae A9678): 100 µg/mL (≈ 252 µM)
- MIC (P. vulgaris A9436): 50 µg/mL (≈ 126 µM)
- in vivo activity compared with streptomycin and kanamycin [6]: much less active than streptomycin and kanamycin
- MIC (B. subtilis ATCC6633): 50 µg/mL (≈ 126 µM)
- PD50 (K. pneumoniae D-11 [7]): 75 mg/kg
- MIC (P. mirabilis A9554): 50 µg/mL (≈ 126 µM)
- MIC (Mycobacterium 607 D87): 50 µg/mL (≈ 126 µM)
- MIC (B. anthracis IID-115; B. anthracis IID-115, medium A: Nutrient agar): 50 µg/mL (≈ 126 µM)
- MIC (E. coli JR35/c600; E. coli JR35/c600, kanamycin resistant strain, medium A: Nutrient agar): 25 µg/mL (≈ 62.9 µM)
- PD50 (S. aureus Smith [8]): 50 mg/kg
